Measurements taken from patent publication US20250051347A1, “BIFUNCTIONAL CHIMERIC HETEROCYCLIC COMPOUND AND USE THEREOF AS ANDROGEN RECEPTOR DEGRADER” (Hinova Pharmaceuticals, Inc., priority 2021, published 2025).

target: T1, androgen receptor (AR) splicing variant AR-v7 (Homo sapiens, UniProt P10275); assay: Degradation activity on androgen receptor splicing variant AR-v7 in 22RV1 cells (ELISA); assay type: cell-based; settings: AR-v7 degradation in 22RV1 cells, 48 h, class symbols
T1 construct: The degradation activity of compounds on AR-v7 in 22RV1 cells; host or cells: 22RV1 cells
T1 sequence (P10275 1-644 isoform P10275-3): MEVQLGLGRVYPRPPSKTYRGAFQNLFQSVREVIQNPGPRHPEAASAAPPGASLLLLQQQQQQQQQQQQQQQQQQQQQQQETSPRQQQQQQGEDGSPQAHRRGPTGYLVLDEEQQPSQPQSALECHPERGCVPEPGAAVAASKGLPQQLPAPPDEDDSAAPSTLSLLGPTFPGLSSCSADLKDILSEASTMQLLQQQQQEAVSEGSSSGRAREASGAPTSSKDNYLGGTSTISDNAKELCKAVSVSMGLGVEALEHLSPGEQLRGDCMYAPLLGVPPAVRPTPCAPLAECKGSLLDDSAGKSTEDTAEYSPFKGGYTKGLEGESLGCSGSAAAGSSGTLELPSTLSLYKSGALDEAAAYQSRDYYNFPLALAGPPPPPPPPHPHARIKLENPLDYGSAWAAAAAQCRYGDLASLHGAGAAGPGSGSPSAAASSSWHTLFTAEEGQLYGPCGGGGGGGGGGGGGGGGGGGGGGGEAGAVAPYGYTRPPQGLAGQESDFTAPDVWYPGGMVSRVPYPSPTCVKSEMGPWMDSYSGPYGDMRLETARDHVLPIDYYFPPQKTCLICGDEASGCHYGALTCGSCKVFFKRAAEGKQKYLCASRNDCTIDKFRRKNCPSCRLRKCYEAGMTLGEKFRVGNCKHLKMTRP

`Cc1nc(-c2ccnc(Oc3ccc(C(C)(C)c4ccc(O[C@H]5C[C@H](Nc6ccc7c(c6)C(=O)N(C6CCC(=O)NC6=O)C7=O)C5)cc4)cc3)c2)no1` (some centres unmarked) [Example 474] and `Cc1nc(-c2ccnc(Oc3ccc(C(C)(C)c4ccc(O[C@H]5C[C@@H](Nc6ccc7c(c6)C(=O)N(C6CCC(=O)NC6=O)C7=O)C5)cc4)cc3)c2)no1` (some centres unmarked) [Example 481] fall in the same range of DC50: 0.011 to 0.1 µM for the first, 0.011 to 0.1 µM for the second.

`CC(C)(c1ccc(Oc2cnc(CN3CC(F)(F)C3)nc2)cc1)c1ccc(OC2CC(Nc3ccc4c(c3)C(=O)N(C3CCC(=O)NC3=O)C4=O)C2)cc1` (centres unmarked) [Example 479, 5-(((1r,3r)-3-(4-(2-(4-((2-((3,3-difluoroazetidin-1-yl)methyl)pyrimidin-5-yl)oxy)phenyl)propan-2-yl)phenoxy)cyclobutyl)amino)-2-(2,6-dioxopiperidin-3-yl)isoindolin-1,3-dione] and `CC(O)c1ccc(Oc2ccc(C(C)(C)c3ccc(O[C@H]4C[C@@H](Nc5ccc6c(c5)C(=O)N(C5CCC(=O)NC5=O)C6=O)C4)cc3)cc2)cn1` (some centres unmarked) [Example 524] fall in the same range of DC50: 0.011 to 0.1 µM for the first, 0.011 to 0.1 µM for the second.

`Cc1nnc(-c2ncc(Oc3ccc(C(C)(C)c4ccc(O[C@H]5C[C@@H](Nc6ccc7c(c6)C(=O)N(C6CCC(=O)NC6=O)C7=O)C5)cc4)cc3)cn2)o1` (some centres unmarked) [Example 484] and `Cc1nnc(-c2coc(Oc3ccc(C(C)(C)c4ccc(O[C@H]5C[C@H](Nc6ccc7c(c6)C(=O)N(C6CCC(=O)NC6=O)C7=O)C5)cc4)cc3)n2)o1` (some centres unmarked) [Example 514] fall in the same range of DC50: 0.011 to 0.1 µM for the first, 0.011 to 0.1 µM for the second.

First: CC(=O)c1nccc(COc2ccc(C(C)(C)c3ccc(OCC4CN(c5ccc6c(c5)C(=O)N(C5CCC(=O)NC5=O)C6=O)C4)cc3)cc2)n1 (centres unmarked) [Example 485, 5-(3-((4-(2-(4-((2-acetylpyrimidin-4-yl)methoxy)phenyl)propan-2-yl)phenoxy)methyl)azetidin-1-yl)-2-(2,6-dioxopiperidin-3-yl)isoindolin-1,3-dione]
Second: CC(=O)c1nccc(COc2ccc(C(C)(C)c3ccc(OC4CCN(c5ccc6c(c5)C(=O)N(C5CCC(=O)NC5=O)C6=O)C4)cc3)cc2)n1 (centres unmarked) [Example 486]
The DC50 of the first is lower: 0.011 to 0.1 µM for the first, 0.101 to 1 µM for the second.

Compared with `CC(=O)c1nccc(COc2ccc(C(C)(C)c3ccc(N4CC5(C4)CN(c4ccc6c(c4)C(=O)N(C4CCC(=O)NC4=O)C6=O)C5)cc3)cc2)n1` (centres unmarked) [Example 488], `CC(=O)c1nccc(COc2ccc(C(C)(C)c3ccc(OC4CCC5(C4)CN(c4ccc6c(c4)C(=O)N(C4CCC(=O)NC4=O)C6=O)C5)cc3)cc2)n1` (centres unmarked) [Example 490] is higher in DC50: 0.011 to 0.1 µM for the first, 0.101 to 1 µM for the second.

Compared with `CC(=O)c1nccc(COc2ccc(C(C)(C)c3ccc(OC4CC5(CCN(c6ccc7c(c6)C(=O)N(C6CCC(=O)NC6=O)C7=O)CC5)C4)cc3)cc2)n1` (centres unmarked) [Example 489], `CC(C)(c1ccc(OCc2ccnc(N3CCC4(CCNC4)CC3)n2)cc1)c1ccc(O[C@H]2C[C@@H](Nc3ccc4c(c3)C(=O)N(C3CCC(=O)NC3=O)C4=O)C2)cc1` (some centres unmarked) [Example 500, 5-((1s,3s)-3-(4-(2-(4-(4-((2-(2,8-diazaspiro[4.5]decan-8-yl)pyrimidin-4-yl)methoxy)phenyl)propan-2-yl)phenoxy)cyclobutyl)amino)-2-(2,6-dioxopyridin-3-yl)isoindolin-1,3-dione] is lower in DC50: 1 to 5 µM for the first, 0.011 to 0.1 µM for the second.

First: CC(C)(c1ccc(OCc2ccnc(N3CC4(COC4)C3)n2)cc1)c1ccc(OCC2(CNc3ccc4c(c3)C(=O)N(C3CCC(=O)NC3=O)C4=O)CC2)cc1 (centres unmarked) [Example 495]
Second: CC(C)(c1ccc(OCc2ccnc(N3CC4(COC4)C3)n2)cc1)c1ccc(OCC2(Nc3ccc4c(c3)C(=O)N(C3CCC(=O)NC3=O)C4=O)CCC2)cc1 (centres unmarked) [Example 498, 5-((1-((4-(2-(4-((2-(2-oxa-6-azaspiro[3.3]heptan-6-yl)pyrimidin-4-yl)methoxy)phenyl)propan-2-yl)phenoxy)methyl)cyclobutyl)amino)-2-(2,6-dioxopiperidin-3-yl)isoindolin-1,3-dione]
The DC50 of the first is higher: 0.101 to 1 µM for the first, 0.011 to 0.1 µM for the second.

First: CC(C)(c1ccc(OCCC#Cc2ccc3c(c2)C(=O)N(C2CCC(=O)NC2=O)C3=O)cc1)c1ccc(OCc2ccnc(N3CC4(COC4)C3)n2)cc1 (centres unmarked) [Example 497]
Second: CC(C)(c1ccc(CNc2ccc3c(c2)C(=O)N(C2CCC(=O)NC2=O)C3=O)cc1)c1ccc(OCc2ccnc(N3CC4(COC4)C3)n2)cc1 (centres unmarked) [Example 507, 5-((4-(2-(4-((2-(2-oxa-6-azaspiro[3.3]heptan-6-yl)pyrimidin-4-yl)methoxy)phenyl)propan-2-yl)benzyl)amino)-2-(2,6-dioxopiperidin-3-yl)isoindolin-1,3-dione]
The DC50 of the first is higher: 1 to 5 µM for the first, 0.011 to 0.1 µM for the second.

First: CC(C)(c1ccc(OCc2ccnc(N3CC4(COC4)C3)n2)cc1)c1ccc(O[C@]2(C)C[C@@H](Nc3ccc4c(c3)C(=O)N(C3CCC(=O)NC3=O)C4=O)C2)cc1 (some centres unmarked) [Example 499, 5-((1r,3r)-3-(4-(2-(4-(4-((2-(2-oxa-6-azaspiro[3.3]heptane-6-yl)pyrimidin-4-yl)methoxy)phenyl)propan-2-yl)phenoxy)-3-methylcyclobutyl)amino)-2-(2,6-dioxopiperidin-3-yl)isoindolin-1,3-dione]
Second: CC(c1ccc(C(C)(C)c2ccc(OCc3ccnc(N4CC5(COC5)C4)n3)cc2)cc1)N1CC(Nc2ccc3c(c2)C(=O)N(C2CCC(=O)NC2=O)C3=O)C1 (centres unmarked) [Example 505, 5-((1-(1-(4-(2-(4-(4-) 4-((2-(2-oxa-6-azaspiro[3.3]heptane-6-yl)pyrimidin-4-yl)methoxy)phenyl)propan-2-yl)phenyl)ethyl)azetidin-3-yl)amino)-2-(2,6-dioxopiperidin-3-yl)isoindolin-1,3-dione]
The DC50 of the first is lower: 0.011 to 0.1 µM for the first, 1 to 5 µM for the second.

First: CC(C)(c1ccc(OCc2ccnc(N3CC4(COC4)C3)n2)cc1)c1ccc(C(=O)N2CC(Nc3ccc4c(c3)C(=O)N(C3CCC(=O)NC3=O)C4=O)C2)cc1 (centres unmarked) [Example 503]
Second: CN(C(=O)c1ccc(C(C)(C)c2ccc(OCc3ccnc(N4CC5(COC5)C4)n3)cc2)cc1)C1CN(c2ccc3c(c2)C(=O)N(C2CCC(=O)NC2=O)C3=O)C1 (centres unmarked) [Example 508, 4-(2-(4-((2-(2-oxa-6-azaspiro[3.3]heptan-6-yl)pyrimidin-4-yl)methoxy)phenyl)propan-2-yl)-N-(1-(2-(2,6-dioxopiperidin-3-yl)-1,3-dioxoisoindolin-5-yl)azetidin-3-yl)-N-methylbenzamide]
The DC50 of the first is lower: 0.011 to 0.1 µM for the first, 0.101 to 1 µM for the second.

`CC(C)(c1ccc(CNC2CN(c3ccc4c(c3)C(=O)N(C3CCC(=O)NC3=O)C4=O)C2)cc1)c1ccc(OCc2ccnc(N3CC4(COC4)C3)n2)cc1` (centres unmarked) [Example 509] and `CCNC(=O)c1nccc(COc2ccc(C(C)(C)c3ccc(OC4CC(Nc5ccc6c(c5)C(=O)N(C5CCC(=O)NC5=O)C6=O)C4)cc3)cc2)n1` (centres unmarked) [Example 531] fall in the same range of DC50: 0.011 to 0.1 µM for the first, 0.011 to 0.1 µM for the second.

`Cc1nc(-c2ncc(Oc3ccc(C(C)(C)c4ccc(O[C@H]5C[C@H](Nc6ccc7c(c6)C(=O)N(C6CCC(=O)NC6=O)C7=O)C5)cc4)cc3)cc2F)no1` (some centres unmarked) [Example 511] and `Cc1cncc(Oc2ccc(C(C)(C)c3ccc(O[C@H]4C[C@@H](Nc5ccc6c(c5)C(=O)N(C5CCC(=O)NC5=O)C6=O)C4)cc3)cc2)n1` (some centres unmarked) [Example 537] fall in the same range of DC50: 0.011 to 0.1 µM for the first, 0.011 to 0.1 µM for the second.

`CC(C)(c1ccc(Oc2cnc(-n3nccn3)c(Cl)c2)cc1)c1ccc(O[C@H]2C[C@H](Nc3ccc4c(c3)C(=O)N(C3CCC(=O)NC3=O)C4=O)C2)cc1` (some centres unmarked) [Example 515] and `CC(C)(c1ccc(Oc2ccc(-n3nccn3)nc2)cc1)c1ccc(O[C@H]2C[C@@H](Nc3ccc4c(c3)C(=O)N(C3CCC(=O)NC3=O)C4=O)C2)cc1` (some centres unmarked) [Example 540] fall in the same range of DC50: 0.011 to 0.1 µM for the first, 0.011 to 0.1 µM for the second.

`CC(c1ccc(Oc2cnc(-n3ccnn3)nc2)cc1)c1ccc(O[C@H]2C[C@H](Nc3ccc4c(c3)C(=O)N(C3CCC(=O)NC3=O)C4=O)C2)cc1` (some centres unmarked) [Example 519] and `O=C1CCC(N2C(=O)c3ccc(N[C@H]4C[C@H](Oc5ccc(Cc6ccc(Oc7cnc(-n8ccnn8)nc7)cc6)cc5)C4)cc3C2=O)C(=O)N1` (some centres unmarked) [Example 520] fall in the same range of DC50: 0.011 to 0.1 µM for the first, 0.011 to 0.1 µM for the second.

First: Cc1nc(-c2ncc(Oc3ccc(C(C)(C)c4ccc(OC5CC(Nc6cc7c(cn6)C(=O)N(C6CCC(=O)NC6=O)C7=O)C5)cc4)cc3)cn2)no1 (centres unmarked) [Example 530, 2-(2,6-dioxopiperidin-3-yl)-6-((1r,3r)-3-(4-(2-(4-((2-(5-methyl-1,2,4-oxadiazol-3-yl)pyrimidin-5-yl)oxy)phenyl)propan-2-yl)phenoxy)cyclobutyl)amino)-1H-pyrrolo[3,4-c]pyridin-1,3(2H)-dione]
Second: CC(C)(c1ccc(Oc2ccc(-n3ccnn3)nc2)cc1)c1ccc(O[C@H]2C[C@@H](Nc3ccc4c(c3)C(=O)N(C3CCC(=O)NC3=O)C4=O)C2)cc1 (some centres unmarked) [Example 541, 5-((1s,3s)-3-(4-(2-(4-((6-(1H-1,2,3-triazol-1-yl)pyridin-3-yl)oxy)phenyl)propan-2-ylphenoxy)cyclobutyl)amino)-2-(2,6-dioxopiperidin-3-yl)isoindolin-1,3-dione]
The DC50 of the first is higher: 0.101 to 1 µM for the first, 0.011 to 0.1 µM for the second.

`CN1CCN(c2ncc(COc3ccc(C(C)(C)c4ccc(OC5CC(Nc6ccc7c(c6)C(=O)N(C6CCC(=O)NC6=O)C7=O)C5)cc4)cc3)cn2)CC1` (centres unmarked) [Example 534] and `CC(C)(c1ccc(Oc2ccc(-n3cccn3)nc2)cc1)c1ccc(O[C@H]2C[C@@H](Nc3ccc4c(c3)C(=O)N(C3CCC(=O)NC3=O)C4=O)C2)cc1` (some centres unmarked) [Example 542] fall in the same range of DC50: 0.011 to 0.1 µM for the first, 0.011 to 0.1 µM for the second.
